The compounds below were run against T1, human Cot/Tpl2 kinase (Homo sapiens, UniProt P41279) (assay: Tpl2/Cot kinase assay: GST-MEK1 phosphorylation detected by ELISA (DELFIA Eu)). Details: 0.4 nM Tpl2, 35 nM GST-MEK1, 50 uM ATP, 1 h at 30° C.
T1 construct: human Cot/Tpl2 kinase construct encoding residues 30-398; 6His (N); made in house; host or cells: Sf9 insect cells, baculovirus system (BD Biosciences)
Format: biochemical
Procedure, shortened: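 Substrate phosphorylation (GST-MEK1 Ser217/221) quantified by DELFIA europium ELISA, yielding IC50 values. Reaction: 1 h at 30° C, pH 7.2 MOPS buffer, 50 uM ATP, 35 nM GST-MEK1, 0.4 nM monomeric His-Tpl2 purified from Sf9 cells, compounds at 1% final DMSO; stopped with EDTA.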

T1 sequence (P41279 30-398): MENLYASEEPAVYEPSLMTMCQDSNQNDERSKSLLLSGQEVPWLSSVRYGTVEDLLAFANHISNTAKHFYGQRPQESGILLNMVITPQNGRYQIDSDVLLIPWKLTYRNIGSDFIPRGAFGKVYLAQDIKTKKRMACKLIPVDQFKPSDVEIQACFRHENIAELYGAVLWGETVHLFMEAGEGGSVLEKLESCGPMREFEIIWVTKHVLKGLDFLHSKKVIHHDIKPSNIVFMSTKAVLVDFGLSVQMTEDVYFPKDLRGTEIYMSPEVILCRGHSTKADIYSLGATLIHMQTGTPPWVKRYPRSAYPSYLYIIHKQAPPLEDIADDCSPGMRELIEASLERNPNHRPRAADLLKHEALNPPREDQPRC

Row | IC50 [nM] | Structure (SMILES)
1 | 210 | N#Cc1cnc2c(Br)cc(NCc3cn(CC(O)CN4CCOCC4)nn3)cc2c1Nc1ccc(F)c(Cl)c1 (centres unmarked) [Example 319, 8-bromo-4-[(3-chloro-4-fluorophenyl)amino]-6-({[1-(2-hydroxy-3-morpholin-4-ylpropyl)-1H-1,2,3-triazol-4-yl]methyl}amino)quinoline-3-carbonitrile]
2 | 5.6 | N#Cc1cnc2c(Cl)cc(NCc3cn(CC(=O)NCc4ccccn4)nn3)cc2c1Nc1ccc(F)c(Cl)c1 [Example 320, 2-(4-((8-chloro-4-(3-chloro-4-fluorophenylamino)-3-cyanoquinolin-6-ylamino)methyl)-1H-1,2,3-triazol-1-yl)-N-(pyridin-2-ylmethyl)acetamide]
3 | 490 | CN(Cc1cn(CCC2CCCN2C)nn1)c1cc(Cl)c2ncc(C#N)c(Nc3ccc(F)c(Cl)c3)c2c1 (centres unmarked) [Example 321, 8-chloro-4-(3-chloro-4-fluorophenylamino)-6-(methyl((1-(2-(1-methylpyrrolidin-2-yl)ethyl)-1H-1,2,3-triazol-4-yl)methyl)amino)quinoline-3-carbonitrile]
4 | 2120 | CC(C)(C)OC(=O)N1CCC(CNc2cc(Cl)c3ncc(C#N)c(Nc4ccc(F)c(Cl)c4)c3c2)CC1 [Example 322, tert-butyl 4-((8-chloro-4-(3-chloro-4-fluorophenylamino)-3-cyanoquinolin-6-ylamino)methyl)piperidine-1-carboxylate]
5 | 1360 | N#Cc1cnc2c(Cl)cc(NCC3CCN(Cc4cccnc4)CC3)cc2c1Nc1ccc(F)c(Cl)c1 [Example 323, 8-chloro-4-(3-chloro-4-fluorophenylamino)-6-((1-(pyridin-3-ylmethyl)piperidin-4-yl)methylamino)quinoline-3-carbonitrile]
6 | 50 | CN1CCC[C@H]1CCn1cc(CNc2cc(Br)c3ncc(C#N)c(Nc4ccc(F)c(Cl)c4)c3c2)nn1 [Example 324, (S)-8-bromo-4-(3-chloro-4-fluorophenylamino)-6-((1-(2-(1-methylpyrrolidin-2-yl)ethyl)-1H-1,2,3-triazol-4-yl)methylamino)quinoline-3-carbonitrile]
7 | 70 | CS(=O)(=O)NCCNc1cc(Cl)c2ncc(C#N)c(Nc3ccc(F)c(Cl)c3)c2c1 [Example 326, N-[2-({8-chloro-4-[(3-chloro-4-fluorophenyl)amino]-3-cyanoquinolin-6-yl}amino)ethyl]methanesulfonamide]
8 | 4.4 | CN1CCCC(n2cc(CNc3cc(Cl)c4ncc(C#N)c(Nc5ccc(F)c(Cl)c5)c4c3)nn2)CC1 (centres unmarked) [Example 329, 8-chloro-4-[(3-chloro-4-fluorophenyl)amino]-6-({[1-(1-methylazepan-4-yl)-1H-1,2,3-triazol-4-yl]methyl}amino)quinoline-3-carbonitrile]
9 | 8.5 | CCN1CCCC(n2cc(CNc3cc(Cl)c4ncc(C#N)c(Nc5ccc(F)c(Cl)c5)c4c3)nn2)CC1 (centres unmarked) [Example 330, 8-chloro-4-[(3-chloro-4-fluorophenyl)amino]-6-({[1-(1-ethylazepan-4-yl)-1H-1,2,3-triazol-4-yl]methyl}amino)quinoline-3-carbonitrile]
10 | 8.2 | CC(C)N1CCCC(n2cc(CNc3cc(Cl)c4ncc(C#N)c(Nc5ccc(F)c(Cl)c5)c4c3)nn2)CC1 (centres unmarked) [Example 331, 8-chloro-4-[(3-chloro-4-fluorophenyl)amino]-6-({[1-(1-isopropylazepan-4-yl)-1H-1,2,3-triazol-4-yl]methyl}amino)quinoline-3-carbonitrile]
11 | 39 | N#Cc1cnc2c(Cl)cc(NCc3cn(C4CCC5(CC4)OCCO5)nn3)cc2c1Nc1ccc(F)c(Cl)c1 [Example 332, 8-chloro-4-[(3-chloro-4-fluorophenyl)amino]-6-({[1-(1,4-dioxaspiro[4.5]dec-8-yl)-1H-1,2,3-triazol-4-yl]methyl}amino)quinoline-3-carbonitrile]
12 | 1.1 | N#Cc1cnc2c(Cl)cc(NCc3cn(C4CCC(=O)CC4)nn3)cc2c1Nc1ccc(F)c(Cl)c1 [Example 333, 8-chloro-4-[(3-chloro-4-fluorophenyl)amino]-6-({[1-(4-oxocyclohexyl)-1H-1,2,3-triazol-4-yl]methyl}amino)quinoline-3-carbonitrile]
13 | 20 | N#Cc1cnc2c(Cl)cc(NCc3cn(C4CCC(O)(c5ccccn5)CC4)nn3)cc2c1Nc1ccc(F)c(Cl)c1 (centres unmarked) [Example 335, 8-chloro-4-[(3-chloro-4-fluorophenyl)amino]-6-({[1-(4-hydroxy-4-pyridin-2-ylcyclohexyl)-1H-1,2,3-triazol-4-yl]methyl}amino)quinoline-3-carbonitrile]

Same assay, conditions: Table 2; Tpl2/Cot kinase, GST-MEK1 substrate, 50 uM ATP

Row | IC50 [nM] | Structure (SMILES)
14 | 1000 | N#Cc1cnc2ccc(Br)cc2c1Nc1ccc(Oc2ccccc2)cc1 [Example 336]
15 | 1000 | N#Cc1cnc2ccc(NCCN3CCOCC3)cc2c1Nc1ccc(F)c(Cl)c1 [Example 337]
16 | 150 | N#Cc1cnc2ccc(NCCN3CCOCC3)cc2c1Nc1ccc(Oc2ccccc2)cc1 [Example 338]
17 | 440 | COc1ccc(CNc2ccc3ncc(C#N)c(Nc4ccc(F)c(F)c4)c3c2)cn1 [Example 340]
18 | 400 | N#Cc1cnc2ccc(NCc3ccc(=O)[nH]c3)cc2c1Nc1ccc(F)c(F)c1 [Example 341]
19 | > 10000 | N#Cc1cnc2ccc(NCCN3CCOCC3)cc2c1Nc1cccc(C(F)(F)F)c1 [Example 342]
20 | 1040 | Cn1cc(CNc2ccc3ncc(C#N)c(Nc4ccc(F)c(F)c4)c3c2)ccc1=O [Example 343]
21 | 1480 | N#Cc1cnc2ccc(NCc3ccc(OCCN4CCOCC4)nc3)cc2c1Nc1ccc(F)c(F)c1 [Example 344]
22 | 1700 | N#Cc1cnc2ccc(NCc3ccc(=O)n(CCN4CCOCC4)c3)cc2c1Nc1ccc(F)c(F)c1 [Example 345]
23 | 600 | N#Cc1cnc2ccc(NCc3ccc4c(c3)OCO4)cc2c1Nc1cccc(Cl)c1 [Example 346]
24 | 600 | CN(C)CCCOc1ccc(CNc2ccc3ncc(C#N)c(Nc4cccc(Cl)c4)c3c2)cc1 [Example 347]
25 | 90 | N#Cc1cnc2ccc(NCc3cccnc3)cc2c1Nc1cccc(Cl)c1 [Example 348]
26 | 370 | CS(=O)(=O)c1ccc(CNc2ccc3ncc(C#N)c(Nc4cccc(Cl)c4)c3c2)cc1 [Example 349]
27 | 690 | N#Cc1cnc2ccc(NCCN3CCOCC3)cc2c1Nc1cccc(Cl)c1 [Example 350]
28 | 1900 | N#Cc1cnc2ccc(NCCN3CCOCC3)cc2c1Nc1cccc(F)c1 [Example 351]
29 | > 10000 | CC(C)c1cccc(Nc2c(C#N)cnc3ccc(NCCN4CCOCC4)cc23)c1 [Example 352]
30 | 470 | N#Cc1cnc2ccc(NCCN3CCOCC3)cc2c1Nc1ccc(Sc2ccccc2)c(Cl)c1 [Example 353]
31 | > 10000 | CN(C)c1cccc(Nc2c(C#N)cnc3ccc(NCCN4CCOCC4)cc23)c1 [Example 354]
32 | > 10000 | N#Cc1cnc2ccc(NCCN3CCOCC3)cc2c1Nc1ccc(Br)cc1 [Example 355]
33 | > 10000 | N#Cc1cnc2ccc(NCCN3CCOCC3)cc2c1Nc1ccc2[nH]ccc2c1 [Example 356]
34 | 1300 | C#Cc1cccc(Nc2c(C#N)cnc3ccc(NCCN4CCOCC4)cc23)c1 [Example 357]
35 | > 40000 | N#Cc1cnc2ccc(NCCN3CCOCC3)cc2c1Sc1ccc(F)c(Cl)c1 [Example 358]
36 | 8400 | CN(C)C(=O)c1cc(N)cc2c(Nc3cccc(Cl)c3)c(C#N)cnc12 [Example 359]
37 | 210 | N#Cc1cnc2ccc(NCc3ccccn3)cc2c1NC1CCCCC1 [Example 360]
38 | 250 | N#Cc1cnc2ccc(NCc3ccccn3)cc2c1Nc1ccccc1 [Example 361]

— patent US20060264460A1 (Wyeth, priority 2005, published 2006)
